In US20220257664A1, “METHOD FOR REGULATION OF SELECTIVE DIFFERENTIATION OF MUSCULOSKELETAL STEM CELLS” (CELLATOZ THERAPEUTICS, INC., priority 2019, published 2022):

Legend:
hMSSCs = experiment: Induction of selective differentiation of hMSSCs transplanted into mouse; format: in vivo; conditions: mixed with heparin, transplanted into subcutaneous tissue of mouse; FIG. 8
Description: In order to measure the possibility of selective differentiation of hMSSCs, hMSSCs were transplanted into the kidney (kidney capsule) or subcutaneous tissue of Balb/c nude mouse by pretreating with various growth factors such as connective tissue growth factor, transforming growth factor, insulin, fibroblast growth factor, etc. and then preparing into a cell aggregate (4×10^5 cells) or mixing with a cell carrier. 3-6 weeks after the transplantation, tissue was analyzed after removing the transplanted cells.
For investigation of the selective differentiation capacity of the hMSSCs induced in the same manner as in Example 2 into muscle in vivo, hMSSCs were mixed with fibrin glue to which heparin was added and then transplanted into the subcutaneous tissue of an immunodeficient mouse. 7 weeks after the transplantation of hMSSCs, tissue was stained with H&E and the STEM101 antibody (Takara, Japan) binding to the human cell nucleus marker in order to identify whether the differentiated tissue was derived from the hMSSCs. In addition, the differentiated tissue was immunofluorescence staining with an antibody against the muscle marker MyoD (Thermo Fisher Scientific Inc., USA) in order to identify muscle cells. The cell nuclei were counterstained with DAPI. […]

hESCs = experiment: Differentiation tendency of MSSC medium vs. CM medium (number of differentiations out of 20 observations); format: cell-based, human; conditions: noggin contained, as compared to CM medium
Description: The differentiation capacity of a medium (hereinafter, referred to as “CM medium”) obtained by replacing human noggin (Life Technologies), which is the ingredient 1) of the seven ingredients of the MSSC medium of Example 2, with conditioned medium (culture supernatant obtained after culturing CF1 cells for 24 hours using complete medium wherein DMEM/F12 is replaced with knockout DMEM (knockout DMEM supplemented with 20% knockout serum replacement (Invitrogen, USA), 1 mM glutamine, 1% nonessential amino acids (Invitrogen, USA), 0.1 mM β-mercaptoethanol, 0.1% penicillin-streptomycin and 5 mg/mL bovine serum albumin) (the remaining ingredients 2)-7) are the same) was compared with that of the MSSC medium.
Noggin is generally used to maintain the characteristics of hESCs during culturing (Chaturvedi G, Simone P D, Ain R, Soares M J, Wolfe M W. Noggin maintains pluripotency of human embryonic stem cells grown on Matrigel. Cell Prolif. 2009 August; 42(4): 425-33).

Molecule	selective differentiation of hMSSCs (hMSSCs)	increase of tendency of osteogenic differentiation (hESCs)
heparin	differentiated selectively into muscle only	
noggin: human noggin, ingredient 1) of the MSSC medium, 250 ng/mL (protein, UniProt Q13253 28-232, looked up) Noggin: QHYLHIRPAPSDNLPLVDLIEHPDPIFDPKEKDLNETLLRSLLGGHYDPGFMATSPPEDRPGGGGGAAGGAEDLAELDQLLRQRPSGAMPSEIKGLEFSEGLAQGKKQRLSKKLRRKLQMWLWSQTFCPVLYAWNDLGSRFWPRYVKVGSCFSKRSCSVPEGMVCKPSKSVHLTVLRWRCQRRGGQRCGWIPIQYPIISECKCSC		≥ 10 times
